# US11117900B2 (Vertex Pharmaceuticals Incorporated, priority 2012, dated 2021)
# System: HCT116 colorectal cancer cells
# Assay: Cisplatin sensitization assay (96 h MTS cell viability);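 further: compound concentration needed to lower the IC50 of Cisplatin alone by a set fold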
# Format: cell-based
# Details: Cisplatin sensitization value
# Procedure, shortened: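 HCT116 cells were dosed simultaneously with compound and cisplatin as a full matrix of 2-fold serial dilutions from 10 μM top final concentration. Incubation was 96 h at 37° C., 5% CO2, followed by 1 h with MTS reagent for the viability read-out. Sensitization values were binned into +++, ++ and + categories.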
row,Compound,Cisplatin Sensitization Assay
1,"Nc1nn2cc(F)cnc2c1C(=O)Nc1cncc(Cl)c1N1CCC(C(=O)N2CCN3CCC2C3)CC1 (stereo not drawn) [I-G-69, N-(4-(4-(1,4-diazabicyclo[3.2.1]octane-4-carbonyl)piperidin-1-yl)-5-chloropyridin-3-yl)-2-amino-6-fluoropyrazolo[1,5-a]pyrimidine-3-carboxamide]",+++ (Compounds with a Cisplatin sensitization value of <0.02 μM are marked with “+++.”)
2,"Nc1nn2cc(F)cnc2c1C(=O)Nc1cncc(F)c1N1CCC(C(=O)N2CC3(COC3)C2)CC1 [I-G-72, N-(4-(4-(2-oxa-6-azaspiro[3.3]heptane-6-carbonyl)piperidin-1-yl)-5-fluoropyridin-3-yl)-2-amino-6-fluoropyrazolo[1,5-a]pyrimidine-3-carboxamide]",+++ (Compounds with a Cisplatin sensitization value of <0.02 μM are marked with “+++.”)
3,"Nc1nn2cc(F)cnc2c1C(=O)Nc1cncc(F)c1N1CCC(C(=O)N2CC(F)(F)C2)CC1 [I-G-73, 2-amino-N-(4-(4-(3,3-difluoroazetidine-1-carbonyl)piperidin-1-yl)-5-fluoropyridin-3-yl)-6-fluoropyrazolo[1,5-a]pyrimidine-3-carboxamide]",+++ (Compounds with a Cisplatin sensitization value of <0.02 μM are marked with “+++.”)
4,"Nc1nn2cc(F)cnc2c1C(=O)Nc1cncc(F)c1N1CCC(C(=O)N2CC(F)C2)CC1 [I-G-74, 2-amino-6-fluoro-N-(5-fluoro-4-(4-(3-fluoroazetidine-1-carbonyl)piperidin-1-yl)pyridin-3-yl)pyrazolo[1,5-a]pyrimidine-3-carboxamide]",+++ (Compounds with a Cisplatin sensitization value of <0.02 μM are marked with “+++.”)
5,"COC1(C)CN(C(=O)C2CCN(c3c(F)cncc3NC(=O)c3c(N)nn4cc(F)cnc34)CC2)C1 [I-G-75, 2-amino-6-fluoro-N-(5-fluoro-4-(4-(3-methoxy-3-methylazetidine-1-carbonyl)piperidin-1-yl)pyridin-3-yl)pyrazolo[1,5-a]pyrimidine-3-carboxamide]",+++ (Compounds with a Cisplatin sensitization value of <0.02 μM are marked with “+++.”)
6,"N#CC1CN(C(=O)C2CCN(c3c(F)cncc3NC(=O)c3c(N)nn4cc(F)cnc34)CC2)C1 [I-G-76, 2-amino-N-(4-(4-(3-cyanoazetidine-1-carbonyl)piperidin-1-yl)-5-fluoropyridin-3-yl)-6-fluoropyrazolo[1,5-a]pyrimidine-3-carboxamide]",+++ (Compounds with a Cisplatin sensitization value of <0.02 μM are marked with “+++.”)
7,"Nc1nn2cc(F)cnc2c1C(=O)Nc1cnccc1N1CCC(C(=O)N2CCC2)CC1 [I-G-77, 2-amino-N-(4-(4-(azetidine-1-carbonyl)piperidin-1-yl)pyridin-3-yl)-6-fluoropyrazolo[1,5-a]pyrimidine-3-carboxamide]",+++ (Compounds with a Cisplatin sensitization value of <0.02 μM are marked with “+++.”)
8,"COC1CN(C(=O)C2CCN(c3ccncc3NC(=O)c3c(N)nn4cc(F)cnc34)CC2)C1 [I-G-78, 2-amino-6-fluoro-N-(4-(4-(3-methoxyazetidine-1-carbonyl)piperidin-1-yl)pyridin-3-yl)pyrazolo[1,5-a]pyrimidine-3-carboxamide]",+++ (Compounds with a Cisplatin sensitization value of <0.02 μM are marked with “+++.”)
9,"COC1(C)CN(C(=O)C2CCN(c3ccncc3NC(=O)c3c(N)nn4cc(F)cnc34)CC2)C1 [I-G-79, 2-amino-6-fluoro-N-(4-(4-(3-methoxy-3-methylazetidine-1-carbonyl)piperidin-1-yl)pyridin-3-yl)pyrazolo[1,5-a]pyrimidine-3-carboxamide]",+++ (Compounds with a Cisplatin sensitization value of <0.02 μM are marked with “+++.”)
10,"Nc1nn2cc(F)cnc2c1C(=O)Nc1cnccc1N1CCC(C(=O)N2CC(F)(F)C2)CC1 [I-G-80, 2-amino-N-(4-(4-(3,3-difluoroazetidine-1-carbonyl)piperidin-1-yl)pyridin-3-yl)-6-fluoropyrazolo[1,5-a]pyrimidine-3-carboxamide]",+++ (Compounds with a Cisplatin sensitization value of <0.02 μM are marked with “+++.”)
11,"N#CC1CN(C(=O)C2CCN(c3ccncc3NC(=O)c3c(N)nn4cc(F)cnc34)CC2)C1 [I-G-81, 2-amino-N-(4-(4-(3-cyanoazetidine-1-carbonyl)piperidin-1-yl)pyridin-3-yl)-6-fluoropyrazolo[1,5-a]pyrimidine-3-carboxamide]",+++ (Compounds with a Cisplatin sensitization value of <0.02 μM are marked with “+++.”)
12,"Nc1nn2cc(F)cnc2c1C(=O)Nc1cnccc1N1CCC(C(=O)N2CC(F)C2)CC1 [I-G-82, 2-amino-6-fluoro-N-(4-(4-(3-fluoroazetidine-1-carbonyl)piperidin-1-yl)pyridin-3-yl)pyrazolo[1,5-a]pyrimidine-3-carboxamide]",+++ (Compounds with a Cisplatin sensitization value of <0.02 μM are marked with “+++.”)
13,"Nc1nn2cc(F)cnc2c1C(=O)Nc1cnccc1N1CCC(C(=O)N2CCCC2)CC1 [I-G-83, 2-amino-6-fluoro-N-(4-(4-(pyrrolidine-1-carbonyl)piperidin-1-yl)pyridin-3-yl)pyrazolo[1,5-a]pyrimidine-3-carboxamide]",+++ (Compounds with a Cisplatin sensitization value of <0.02 μM are marked with “+++.”)
14,"Nc1nn2cc(F)cnc2c1C(=O)Nc1cnccc1N1CCC(C(=O)N2CCC3(COC3)C2)CC1 [I-G-84, N-(4-(4-(2-oxa-6-azaspiro[3.4]octane-6-carbonyl)piperidin-1-yl)pyridin-3-yl)-2-amino-6-fluoropyrazolo[1,5-a]pyrimidine-3-carboxamide]",+++ (Compounds with a Cisplatin sensitization value of <0.02 μM are marked with “+++.”)
15,"Nc1nn2cc(F)cnc2c1C(=O)Nc1cnccc1N1CCC(C(=O)N2CCOCC2)CC1 [I-G-85, 2-amino-6-fluoro-N-(4-(4-(morpholine-4-carbonyl)piperidin-1-yl)pyridin-3-yl)pyrazolo[1,5-a]pyrimidine-3-carboxamide]",+++ (Compounds with a Cisplatin sensitization value of <0.02 μM are marked with “+++.”)
16,"CS(=O)(=O)C1CN(C(=O)C2CCN(c3c(F)cncc3NC(=O)c3c(N)nn4cc(F)cnc34)CC2)C1 [I-G-86, 2-amino-6-fluoro-N-(5-fluoro-4-(4-(3-(methylsulfonyl)azetidine-1-carbonyl)piperidin-1-yl)pyridin-3-yl)pyrazolo[1,5-a]pyrimidine-3-carboxamide]",+++ (Compounds with a Cisplatin sensitization value of <0.02 μM are marked with “+++.”)
17,"Nc1nn2cc(Cl)cnc2c1C(=O)Nc1cncc(F)c1N1CCC(C(=O)N2CCN3CCC2CC3)CC1 [I-G-87, N-(4-(4-(1,4-diazabicyclo[3.2.2]nonane-4-carbonyl)piperidin-1-yl)-5-fluoropyridin-3-yl)-2-amino-6-chloropyrazolo[1,5-a]pyrimidine-3-carboxamide]",+++ (Compounds with a Cisplatin sensitization value of <0.02 μM are marked with “+++.”)
18,"Nc1nn2cc(F)cnc2c1C(=O)Nc1cnccc1N1CCC(C(=O)N2CC3(COC3)C2)CC1 [I-G-88, N-(4-(4-(2-oxa-6-azaspiro[3.3]heptane-6-carbonyl)piperidin-1-yl)pyridin-3-yl)-2-amino-6-fluoropyrazolo[1,5-a]pyrimidine-3-carboxamide]",+++ (Compounds with a Cisplatin sensitization value of <0.02 μM are marked with “+++.”)
19,"CS(=O)(=O)C1CN(C(=O)C2CCN(c3ccncc3NC(=O)c3c(N)nn4cc(F)cnc34)CC2)C1 [I-G-89, 2-amino-6-fluoro-N-(4-(4-(3-(methylsulfonyl)azetidine-1-carbonyl)piperidin-1-yl)pyridin-3-yl)pyrazolo[1,5-a]pyrimidine-3-carboxamide]",+ (Compounds with a Cisplatin sensitization value >0.2 μM but <5 μM are marked with “+.”)
20,"Nc1nn2cc(F)cnc2c1C(=O)Nc1cnccc1N1CCC(C(=O)N2CC3(CCO3)C2)CC1 [I-G-90, N-(4-(4-(1-oxa-6-azaspiro[3.3]heptane-6-carbonyl)piperidin-1-yl)pyridin-3-yl)-2-amino-6-fluoropyrazolo[1,5-a]pyrimidine-3-carboxamide]",+++ (Compounds with a Cisplatin sensitization value of <0.02 μM are marked with “+++.”)
21,"CCOC1CN(C(=O)C2CCN(c3ccncc3NC(=O)c3c(N)nn4cc(F)cnc34)CC2)C1 [I-G-91, 2-amino-N-(4-(4-(3-ethoxyazetidine-1-carbonyl)piperidin-1-yl)pyridin-3-yl)-6-fluoropyrazolo[1,5-a]pyrimidine-3-carboxamide]",+++ (Compounds with a Cisplatin sensitization value of <0.02 μM are marked with “+++.”)
22,"CC1(N2CCN(C(=O)C3CCN(c4c(F)cncc4NC(=O)c4c(N)nn5cc(F)cnc45)CC3)CC2)COC1 [I-G-92, 2-amino-6-fluoro-N-(5-fluoro-4-(4-(4-(3-methyloxetan-3-yl)piperazine-1-carbonyl)piperidin-1-yl)pyridin-3-yl)pyrazolo[1,5-a]pyrimidine-3-carboxamide]",+++ (Compounds with a Cisplatin sensitization value of <0.02 μM are marked with “+++.”)
23,"CO[C@@H]1CCN(C(=O)C2CCN(c3ccncc3NC(=O)c3c(N)nn4cc(F)cnc34)CC2)C1 [I-G-93, (R)-2-amino-6-fluoro-N-(4-(4-(3-methoxypyrrolidine-1-carbonyl)piperidin-1-yl)pyridin-3-yl)pyrazolo[1,5-a]pyrimidine-3-carboxamide]",+++ (Compounds with a Cisplatin sensitization value of <0.02 μM are marked with “+++.”)
24,"CO[C@H]1CCN(C(=O)C2CCN(c3ccncc3NC(=O)c3c(N)nn4cc(F)cnc34)CC2)C1 [I-G-94, (S)-2-amino-6-fluoro-N-(4-(4-(3-methoxypyrrolidine-1-carbonyl)piperidin-1-yl)pyridin-3-yl)pyrazolo[1,5-a]pyrimidine-3-carboxamide]",+++ (Compounds with a Cisplatin sensitization value of <0.02 μM are marked with “+++.”)
